Twelve compounds from patent US20240383840A1, “AMINE-N-OXIDE COMPOUNDS” (Karl Franzens Universität Graz, priority 2021, published 2024) can be followed below.

The structures appear in SMILES notation.

The nature of one series: Critical micelle concentration (CMC) by Wilhelmy plate method, K100C Force Tensiometer. In kind it is physicochemical. Conditions: 25° C., pH 3. The method, then:
As a parameter for the surfactant properties of the novel amine-N-oxide compounds, as usual, the critical micelle concentration (CMC), i.e. the concentration of the protonated or cationic form of the surfactants at which micelles can form was used and was determined using a K100C Force Tensiometer from Krüss Scientific according to the Wilhelmy plate method at 25° C. and pH 3. For comparison, dodecyldimethylamine N-oxide (“C1”) was measured under the same conditions.
The compound `CCCCCCCCOc1c(C[N+](C)(C)[O-])cc(CC)cc1OC` [Compound 1, N,N-dimethyl-1-(5-ethyl-3-methoxy-2-octyloxyphenyl)methanamine N-oxide] registered a CMC value of 4.1 mM.

Staying with this series, now noted: critical micelle concentration of the protonated or cationic form; Wilhelmy plate method, 25° C., pH 3.
On to `CCCCCCCCOc1c(C[N+](C)(C)[O-])cc(CC)cc1OC` [Compound 1, N,N-dimethyl-1-(5-ethyl-3-methoxy-2-octyloxyphenyl)methanamine N-oxide], for which the CMC came out at 4.1 mmol/L. Still for that read-out and setting: under `CCCCCCCCCCOc1c(C[N+](C)(C)[O-])cc(CC)cc1OC` [Compound 2, N,N-dimethyl-1-(2-decyloxy-5-ethyl-3-methoxyphenyl)methanamine N-oxide] stands 570 mmol/L. As to `CCCCCCCCCCCCOc1c(C[N+](C)(C)[O-])cc(CC)cc1OC` [Compound 3, N,N-dimethyl-1-(2-dodecyloxy-5-ethyl-3-methoxyphenyl)methanamine N-oxide], the CMC amounted to 89 mmol/L. The same measure, in the same setting: under `CCCCCCCCCCCCCCOc1c(C[N+](C)(C)[O-])cc(CC)cc1OC` [Compound 4, N,N-dimethyl-1-(5-ethyl-3-methoxy-2-tetradecyloxyphenyl)methanamine N-oxide] stands 5.2 mmol/L; under `CCCCCCCCCCCCCCCCOc1c(C[N+](C)(C)[O-])cc(CC)cc1OC` [Compound 5, N,N-dimethyl-1-(5-ethyl-2-hexadecyloxy-3-methoxyphenyl)methanamine N-oxide], 4.0 mmol/L; under `CCCCCCCCCCCCCCCCCCOc1c(C[N+](C)(C)[O-])cc(CC)cc1OC` [Compound 6, N,N-dimethyl-1-(5-ethyl-3-methoxy-2-octadecyloxyphenyl)methanamine N-oxide], 1.3 mmol/L.

As to `CCCCCCCCCCCCOc1c(C[N+]2([O-])CCCC2)cc(CC)cc1OC` [Compound 7, 1-(2-dodecyloxy-5-ethyl-3-methoxybenzyl)pyrrolidine-1-oxide], the CMC was determined as 36 mmol/L. The same measure, in the same setting: the figure for `CCCCCCCCCCCCOc1c(C[N+]2([O-])CCCCC2)cc(CC)cc1OC` [Compound 8, 1-(2-dodecyloxy-5-ethyl-3-methoxybenzyl)piperidine-1-oxide] is 130 mmol/L; for `CCCCCCCCCCCCOc1c(C[N+](C)(C)[O-])cc(CC)cc1C[N+](C)(C)[O-]` [Compound 13, 1,1′-(2-dodecyloxy-5-ethyl-1,3-phenylene)-bis(N,N-dimethylmethanamine N-oxide)] it is 190 mmol/L; for `CCCCCCCCCCCCCCCCOc1c(C[N+](C)(C)[O-])cc(CC)cc1C[N+](C)(C)[O-]` [Compound 14, 1,1′-(5-ethyl-2-hexadecyloxy-1,3-phenylene)-bis(N,N-dimethylmethanamine N-oxide)] it is 75 mmol/L. On the same count and under the same terms, under `CCCCCCCCCCCCCCCCCCOc1c(C[N+](C)(C)[O-])cc(CC)cc1C[N+](C)(C)[O-]` [Compound 15, 1,1′-(5-ethyl-2-octadecyloxy-1,3-phenylene)-bis(N,N-dimethylmethanamine N-oxide)] stands 29 mmol/L; under `CCCCCCCCCCCC[N+](C)(C)[O-]` [Compound C1, dodecyldimethylamine N-oxide, reference compound], 4200 mmol/L.

The same series, now with this note: second value of the cell, for (3)*; asterisk not explained; otherwise 25° C., pH 3.
Consider `CCCCCCCCCCCCOc1c(C[N+](C)(C)[O-])cc(CC)cc1OC` [Compound 3, N,N-dimethyl-1-(2-dodecyloxy-5-ethyl-3-methoxyphenyl)methanamine N-oxide], for which the “CMC, value marked (3)*” value worked out at 19 mmol/L.
